For data set [1], the target named is T1, HMGB1 (Homo sapiens, UniProt P09429).
T1 sequence (P09429 1-215): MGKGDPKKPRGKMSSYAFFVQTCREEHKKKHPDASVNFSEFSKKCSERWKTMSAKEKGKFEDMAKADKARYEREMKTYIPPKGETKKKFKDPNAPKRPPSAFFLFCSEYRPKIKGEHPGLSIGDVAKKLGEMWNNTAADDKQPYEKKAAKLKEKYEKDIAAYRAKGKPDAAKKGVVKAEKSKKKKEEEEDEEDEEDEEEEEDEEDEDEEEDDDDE
The experiment in a line: Biolayer interferometry (BLI) binding of DNA to HMGB1 coupled to a biolayer sensor. The conditions noted are these: for effect of addition of platinum compound on DNA binding / affinity of DNA to HMGB1: platinum compound added to DNA; for Kd: HMGB1 amide-coupled to biolayer sensor, + CP = with cisplatin, read-out: Affinity to HMGB1. For orientation: Biolayer interferometry detects binding as a change in optical thickness at a sensor tip.

Another data set has as its target RAGE (Homo sapiens, UniProt Q15109). The experiment in a line: BLI binding of sRAGE to HMGB1 in the presence of DNA. To be noted: for Kd: sRAGE binding to HMGB1 in the presence of the DNA, + CP = with cisplatin, read-out: Affinity to RAGE.
The target in data set [2] is HMGB1 (Homo sapiens?) (UniProt P09429). The experiment in a line: BLI. The conditions noted are these: given as affinity, unit not stated (M assumed).

Chain of RAGE (Q15109 23-342 limits assumed, one chain of several): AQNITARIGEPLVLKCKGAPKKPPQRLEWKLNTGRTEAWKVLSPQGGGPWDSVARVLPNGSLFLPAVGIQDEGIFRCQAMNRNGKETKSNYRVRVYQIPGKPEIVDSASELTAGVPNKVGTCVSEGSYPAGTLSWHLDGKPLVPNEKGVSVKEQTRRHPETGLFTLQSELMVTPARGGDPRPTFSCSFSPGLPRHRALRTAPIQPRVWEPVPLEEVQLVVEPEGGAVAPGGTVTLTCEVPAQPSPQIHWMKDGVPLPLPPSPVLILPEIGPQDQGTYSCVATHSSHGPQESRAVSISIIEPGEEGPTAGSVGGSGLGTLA

Turning to `N.N.O=C([O-])C1(C(=O)[O-])CCC1.[Pt+2]` [carboplatinum, carboplatin], the “effect of addition of platinum compound on DNA binding / affinity of DNA to HMGB1” value at HMGB1 [1] is “enhanced DNA binding”.

As to “5′-cTC CGA CGc tCA aTG cTG GTA CGG Tat CCG TgT TAG-3′ (CTCCGACGCTCAATGCTGGTACGGTATCCGTGTTAG; chemistry not given here) [Scrambled 1, scrambled hairpin oligonucleotide used as a control]”, the Kd was found to be 51 nM with HMGB1 [1] and 8.7 nM with RAGE.

On to `N.N.[Cl][Pt][Cl]` [cisplatin], for which the results for the “effect of addition of platinum compound on DNA binding / affinity of DNA to HMGB1” value at HMGB1 [1] and at HMGB1 [1] (listed as cis-platinum) were “increases the affinity” and “enhanced DNA binding”, respectively. Further, the “effect of cisplatin on affinity between sRAGE and HMGB1” value on RAGE (in the presence of cisplatin) was “No increased affinity”.

Turning to “5′-CTGGACCTTCC*T*T*T*T*GGAAGGTCC*A*G [Oligo 2]”, the Kd at HMGB1 [1] turned out to be 33 nM; at RAGE it was 4.3 nM.

Circular DNA displayed a Kd in the data set with HMGB1 [2] (p52 says circular DNA not measured well) of 3.6 nM.

Consider “5′-GTA cGA agT CCG TTC cTa GGC tTG ct-3′ (5'-GTA cGA agT CCG TTC cTa GGC tTG ct-3'; as printed in the source, key not given here) [Scrambled 2, scrambled hairpin oligonucleotide used as a control]”, for which the Kd amounted to 180 nM with HMGB1 [1] and 3.9 nM in the data set with RAGE.

On to “5′-CCTCTCTGGACCTTCC*T*T*T*T*GGAAGGTCCAGAGA*G*G [Oligo 1]”, for which the Kd turned out to be 6.6 nM on HMGB1 [1] and 8.7 nM at RAGE.

In the case of `O=C1[O][Pt]2([NH][C@@H]3CCCC[C@H]3[NH]2)[O]C1=O` [oxaliplatin], the “effect of addition of platinum compound on DNA binding / affinity of DNA to HMGB1” value on HMGB1 [1] is given as “enhanced DNA binding”.

The compound Linear DNA yielded a Kd with HMGB1 [2] of 0.014 nM.

The values are drawn from patent US20090147264A1, “LABEL-FREE, REAL-TIME DETECTION SYSTEM FOR MOLECULAR INTERACTION ANALYSIS” (The University of Pittsburgh - Of the Commonwealth System …, priority 2007, published 2009).
